Results as given in PMC6538186, “Using the concordance of in vitro and in vivo data to evaluate extrapolation assumptions” (PLoS ONE, 2019).
Like-named read-outs stand apart in the source and are kept apart here.

Legend:
[1] = system: primary rat hepatocytes
[2] = system: plasma protein

Row | Structure (SMILES) | Rat.Clint_uL.min-1_million.cells-1 [1] | Rat.Funbound.plasma ([2]; pH 7.4) | Rat.Funbound.plasma [2] | Rat.Funbound.plasma ([2]; 4 h, 5 μM, pH 7.4)
1 | ClC1C(Cl)C(Cl)C(Cl)C(Cl)C1Cl (stereo not drawn) [1,2,3,4,5,6-hexachlorocyclohexane] | 73.4 uL.min-1_million.cells-1 | 0.009 |  | 
2 | O=[N+]([O-])c1ccc(Cl)cc1 [1-chloro-4-nitrobenzene] |  | 0.127 |  | 
3 | Oc1ccccc1Cc1ccccc1O [2,2'-bisphenol f] | 89.7 uL.min-1_million.cells-1 |  | 0.0378 | 
4 | Oc1c(Cl)cc(Cl)c(Cl)c1Cl [2,3,4,6-tetrachlorophenol] | 8.3 uL.min-1_million.cells-1 |  |  | 
5 | Oc1cc(Cl)c(Cl)cc1Cl [2,4,5-trichlorophenol] | 60.8 uL.min-1_million.cells-1 | 0 |  | 
6 | O=C(O)COc1cc(Cl)c(Cl)cc1Cl [2,4,5-trichlorophenoxyacetic acid] | 0 uL.min-1_million.cells-1 | 0.0137 |  | 
7 | Oc1c(Br)cc(Br)cc1Br [2,4,6-tribromophenol] | 21.5 uL.min-1_million.cells-1 | 0 |  | 
8 | O=C(c1ccccc1)c1ccc(O)cc1O [2,4-dihydroxybenzophenone] | 45.5 uL.min-1_million.cells-1 |  |  | 0.0188
9 | Cc1ccc(O)c(C)c1 [2,4-dimethylphenol] | 38 uL.min-1_million.cells-1 | 0.228 |  | 
10 | O=[N+]([O-])c1ccc(O)c([N+](=O)[O-])c1 [2,4-dinitrophenol] | 3.5 uL.min-1_million.cells-1 | 0.031 |  | 
11 | Cc1ccc([N+](=O)[O-])cc1N [2-methyl-5-nitroaniline] | 14.8 uL.min-1_million.cells-1 | 0.182 |  | 
12 | Cc1ccccc1O [2-methylphenol] | 0 uL.min-1_million.cells-1 | 0.525 |  | 
13 | O=S(=O)(c1ccc(Cl)cc1)c1ccc(Cl)cc1 [4,4'-dichlorodiphenyl sulfone] | 49.4 uL.min-1_million.cells-1 |  |  | 0
14 | O=S(=O)(c1ccc(O)cc1)c1ccc(O)cc1 [4,4'-sulfonyldiphenol] | 33.1 uL.min-1_million.cells-1 |  |  | 0.0711
15 | CC(C)(C)CC(C)(C)c1ccc(O)cc1 [4-(1,1,3,3-tetramethylbutyl)phenol] | 169.2 uL.min-1_million.cells-1 |  |  | 0
16 | Cc1cc(Cl)ccc1N [4-chloro-2-methylaniline] | 19.5 uL.min-1_million.cells-1 | 0.1565 |  | 
17 | C[C@]12CCC(=O)C[C@@H]1CC[C@@H]1[C@@H]2CC[C@]2(C)[C@@H](O)CC[C@@H]12 [5alpha-dihydrotestosterone, reference compound] | 104 uL.min-1_million.cells-1 | 0.0265 |  | 
18 | C[C@]12CCC(=O)C=C1CC[C@@H]1[C@@H]2CC[C@@]2(C)[C@H]1CC[C@]2(C)O [17-methyltestosterone, reference compound] | 77.5 uL.min-1_million.cells-1 | 0.0191 |  | 
19 | ClC1=C(Cl)C2(Cl)C3C4C=CC(C4)C3C1(Cl)C2(Cl)Cl (stereo not drawn) [Aldrin] | 31.4 uL.min-1_million.cells-1 | 0 |  | 
20 | O=c1cc(-c2ccc(O)cc2)oc2cc(O)cc(O)c12 [Apigenin] | 85.7 uL.min-1_million.cells-1 |  |  | 0
21 | O=C(O)c1ccccc1 [Benzoic acid] | 0.78 uL.min-1_million.cells-1 | 0.422 |  | 
22 | CCCCOC(=O)c1ccccc1C(=O)OCc1ccccc1 [Butyl benzyl phthalate] | 359 uL.min-1_million.cells-1 |  |  | 
23 | CCCCOC(=O)c1ccc(O)cc1 [Butylparaben] | 271 uL.min-1_million.cells-1 | 0.0356 |  | 
24 | CCOP(=S)(OCC)Oc1nc(Cl)c(Cl)cc1Cl [Chlorpyrifos] | 184 uL.min-1_million.cells-1 | 0.0179 |  | 
25 | C#CCOC(=O)[C@@H](C)Oc1ccc(Oc2ncc(Cl)cc2F)cc1 [Clodinafop-propargyl] | 699 uL.min-1_million.cells-1 |  |  | 
26 | CC(Cl)(Cl)C(=O)O [Dalapon] | 0 uL.min-1_million.cells-1 | 0.864 |  | 
27 | CC1(C)[C@H](C(=O)O[C@H](C#N)c2cccc(Oc3ccccc3)c2)[C@@H]1C=C(Br)Br [Deltamethrin] | 7 uL.min-1_million.cells-1 |  |  | 0.049
28 | c1ccc2c(c1)oc1ccccc12 [Dibenzofuran] | 102.9 uL.min-1_million.cells-1 | 0.012 |  | 
29 | CC/C(=C(/CC)c1ccc(O)cc1)c1ccc(O)cc1 [Diethylstilbestrol (des), reference compound] | 54.8 uL.min-1_million.cells-1 |  | 0 | 
